One block for each molecule: values may come before it.
Tests used:
[1] = system: colonic crypts; experiment: Ischemic injury (100% N2) and intracellular calcium in colonic crypts; type: cell-based; conditions: 5 min prepulse with 100 nM compound A; rat colonic crypts
[2] = system: ileal villi; experiment: Ischemic injury and Trypan Blue exclusion in ileal villi; type: cell-based, rat; conditions: 5 min of 100 nM compound A; 30 min 100% N2; without calcimimetic greater than 60% uptake
Procedure: Individual villi were transferred to the stage of an inverted microscope where they were perfused with 37° C. HEPES Ringer solution that was bubbled with 100% O2. After the 5 minute equilibration period villi were exposed to a HEPES Ringer solution that had been bubbled with 100% N2. In one series Trypan Blue a non membrane permeant dye used for assessment of membrane integrity was added to the bath (0.1 mM Trypan Blue concentration dissolved directly into the bath solution, either 100% O2 or 100% N2). Images were then recorded at sequential time points using DIC optics at 60× Magnification using a Cooled CCD camera and Metafluor Image acquisition and analysis software. Final data was acquired at 30 min from start of perfusion for all groups. The number of Trypan blue positive cells were counted and a number recorded for each villi under each condition. After 30 minutes of exposure to each experimental solution the number of Trypan Blue positive cells was recorded from a blinded observer. The final number of positive cells for each villi was recorded. The data for each villi with a minimum of 7 cells per villi were then pooled and recorded. A numeric mean was then given for the summation of all the cellular data from each villi and from each animal. For the studies presented there were 7 cells per villi, 5 villi per animal and 5 animals in each group. […]

[3] = system: isolated ileal villi; experiment: Ischemic injury (100% N2) and intracellular calcium (FLUO-4) in isolated ileal villi; type: cell-based; conditions: 5 min exposure to 100 nM compound A; rat ileal villi; without calcimimetic sustained increase greater than 200% of initial value
Procedure: Male (Casr^+/+;Gcm2^−/−) or CaSR knockout (Casr^−/−;Gcm2^−/−) mice weighing 22-27 grams (upper panel) or male Sprague-Dawley rats weighing 220-275 grams (lower panel) were allowed free access to water and food prior to experimentation. The animals were exposed to an overdose of isofluorane and the ileum was removed. The ileum was then cut into 4 cm long sections and each section was placed in EDTA (20 mM) to isolate individual villi for 20 minutes at 37° C. After this digestion period the villi were placed in a HEPES-Ringer Solution that was bubbled with 100% O2 and were kept in this solution at 4° C. until use. All mice were generated at Yale University from a breeding colony. Male Sprague-Dawley rats were purchased from Charles River Laboratories Inc. (Wilmington, Mass.). […]
Following isolation individual villi were placed on coverslips and loaded with the calcium indicator dye FLUO4-AM (10 μM) (Invitrogen, Oregon USA) for 15 minutes. […] Images were recorded for 20-30 minutes using DIC optics at 60× Magnification with a Cooled CCD camera and Metamorph Image acquisition and analysis software.
The increase in intracellular Ca^2+ is plotted as arbitrary fluorescent units (AFU) with higher numbers of AFU representing an increase in intracellular Ca^2+. The data for each villi with a minimum of 7 cells per villi were then pooled and recorded. […]

[4] = system: wound injury RNA biomarkers (wound tissue); experiment: Wound injury RNA biomarkers by quantitative PCR in full-thickness cutaneous wound injury model; type: in vivo, mouse; conditions: 3 mg/kg, drug over vehicle, n=5
Procedure: See Zoog S J et al. Cytometry A. (2009) March; 75(3): 189-98. The impact of calcimimetic treatment on gene mRNA biomarkers was assessed by quantitative PCR. For wound injury RNA biomarker exploration, female balb/c mice were randomly divided and treated with Compound B (3 mg/kg, n=5) or vehicle (20% Captisol in water, n=5) the day before cutaneous wounding and each subsequent day after until the termination of the studies. All mice received a 3 mm diameter full-thickness punch wound on day zero. On day 1 and day 3 post-injury, a 6 mm diameter skin biopsy was made over the original 3 mm wound and the wound tissue collected for RNA analysis. RNA was isolated using the Trizol reagent (Invitrogen) following manufacturer's instruction. 10 ng of total RNA was added to a single well at the final volume of 10 ul in 1×ABI (Applied Biosystems) Taqman qRT-PCR mixture and run on an ABI 7900 HT Real Time PCR system. For data analysis, the gene expression profile of each sample was first determined based on a control gene, Hprt1, using ABI SDS2.1 software. The signal of each sample was normalized further with Actb, Gapdh, Hprt1, and Rpl27. The biomarkers of wound injury, inflammation and repair that were dynamically affected by Compound B on day 1 and day 3 compared to vehicle control are shown in Table 2. Calcimimetic Compound B affected inflammatory genes, and genes involved in remodeling and repair. Specifically, key inflammatory cytokines such as IL-1a and TNF that may promote cell death were affected by Compound B. Genes involved in inflammation and repair that were affected included: tryptase, TIMP-3, and MMP13. Genes involved in promoting cell survival included: VEGFa, TGFb1, eNOS, and PDGFRb. Immune cell related genes included: M-CSF, TLR-7 and CD3. Other relevant genes included: ITGA3 and PRG-1. […] Table 2 represents the fold increase of drug-induced quantitative change in the gene over vehicle as determined by PCR analysis (n=5 in each drug or vehicle treated cohort).

[5] = system: serum total calcium; experiment: Serum total calcium in cutaneous wound study; type: in vivo, mouse; conditions: Compound B 3 mg/kg daily, female balb/c mice; vehicle 10.2-10.9 mg/dL
[6] = Plasma level of calcimimetic in cutaneous wound study; type: in vivo, mouse; conditions: Compound B 3 mg/kg daily, female balb/c mice, over the course of the study

SMILES: COc1cccc([C@@H](C)NCCCc2ccccc2Cl)c1 [Compound A, 3-(2-chlorophenyl)-N-((1R)-1-(3-(methyloxy)phenyl)ethyl)-1-propanamine]
change in intracellular calcium following exposure to 100% N2 [1]: no increase in calcium
cellular uptake of Trypan Blue [2]: prevented uptake of Trypan Blue
change in intracellular calcium following exposure to 100% N2 [3]: no increase in calcium

average plasma level [6]: 20 to 36 ng/mL
SMILES: COc1ccc(CNC(C)c2ccccc2)cc1-c1ccc(C(F)(F)F)cc1 (centres unmarked) [Compound B, N-((6-(methyloxy)-4′-(trifluoromethyl)-1,1′-biphenyl-3-yl)methyl)-1-phenylethanamine]
Fold Increase (C/V) CD3 RNA ([4]; Day 1 post-injury): 2.90 fold
Fold Increase (C/V) IL-1a RNA ([4]; Day 1 post-injury): 1.78 fold
Fold Increase (C/V) ITGA3 RNA ([4]; Day 1 post-injury): 4.89 fold
Fold Increase (C/V) M-CSF RNA ([4]; Day 1 post-injury): 2.13 fold
Fold Increase (C/V) MMP13 RNA ([4]; Day 1 post-injury): 2.78 fold
Fold Increase (C/V) PDGFRb(CD140) RNA ([4]; Day 1 post-injury): 0.67 fold
Fold Increase (C/V) PRG-1 RNA ([4]; Day 1 post-injury): 3.03 fold
Fold Increase (C/V) TGFB1 RNA ([4]; Day 1 post-injury): 4.17 fold
Fold Increase (C/V) TIMP-3 RNA ([4]; Day 1 post-injury): 4.48 fold
Fold Increase (C/V) TLR-7 RNA ([4]; Day 1 post-injury): 2.20 fold
Fold Increase (C/V) TNFR(p75) RNA ([4]; Day 1 post-injury): 1.62 fold
Fold Increase (C/V) TNFalpha RNA ([4]; Day 1 post-injury): 1.26 fold
Fold Increase (C/V) Tryptase b2 (MCP-6) RNA ([4]; Day 1 post-injury): 1.02 fold
Fold Increase (C/V) VEGFa RNA ([4]; Day 1 post-injury): 1.53 fold
Fold Increase (C/V) eNOS RNA ([4]; Day 1 post-injury): 5.41 fold
Fold Increase (C/V) CD3 RNA ([4]; Day 3 post-injury): 0.88 fold
Fold Increase (C/V) IL-1a RNA ([4]; Day 3 post-injury): 3.44 fold
Fold Increase (C/V) ITGA3 RNA ([4]; Day 3 post-injury): 1.78 fold
Fold Increase (C/V) M-CSF RNA ([4]; Day 3 post-injury): 2.13 fold
Fold Increase (C/V) MMP13 RNA ([4]; Day 3 post-injury): 1.90 fold
Fold Increase (C/V) PDGFRb(CD140) RNA ([4]; Day 3 post-injury): 1.42 fold
Fold Increase (C/V) PRG-1 RNA ([4]; Day 3 post-injury): 4.12 fold
Fold Increase (C/V) TGFB1 RNA ([4]; Day 3 post-injury): 0.92 fold
Fold Increase (C/V) TIMP-3 RNA ([4]; Day 3 post-injury): 1.62 fold
Fold Increase (C/V) TLR-7 RNA ([4]; Day 3 post-injury): 2.39 fold
Fold Increase (C/V) TNFR(p75) RNA ([4]; Day 3 post-injury): 1.62 fold
Fold Increase (C/V) TNFalpha RNA ([4]; Day 3 post-injury): 3.83 fold
Fold Increase (C/V) Tryptase b2 (MCP-6) RNA ([4]; Day 3 post-injury): 0.95 fold
Fold Increase (C/V) VEGFa RNA ([4]; Day 3 post-injury): 0.61 fold
Fold Increase (C/V) eNOS RNA ([4]; Day 3 post-injury): 0.46 fold
serum total calcium level [5]: 7.21 to 7.9 mg/dL

Reference: patent publication US8609655B2, “Calcimimetic compound for use in the treatment of epithelial injury” (Amgen Inc., priority 2008, dated 2013)
